# Laboratory results published in paper PMC7044277 (Nature Communications, 2020).
# Where “and” joins values, the source holds several entries; their conditions need not be identical. Identical values can stand only once.
# Assays:
# Assay type in all cases: cell-based
# 320 non-olfactory GPCRs [1] = molecular target: 320 non-olfactory GPCRs (Homo sapiens, UniProt P41145); conditions: receptor OPRK1; replicate values, Fig_4g
# 320 non-olfactory GPCRs [2] = molecular target: T1, 320 non-olfactory GPCRs (Homo sapiens, UniProt P18089)
# T1 construct: expressed in transfected cells; host or cells: HTLA cells
# T1 sequence (P18089 whole entry): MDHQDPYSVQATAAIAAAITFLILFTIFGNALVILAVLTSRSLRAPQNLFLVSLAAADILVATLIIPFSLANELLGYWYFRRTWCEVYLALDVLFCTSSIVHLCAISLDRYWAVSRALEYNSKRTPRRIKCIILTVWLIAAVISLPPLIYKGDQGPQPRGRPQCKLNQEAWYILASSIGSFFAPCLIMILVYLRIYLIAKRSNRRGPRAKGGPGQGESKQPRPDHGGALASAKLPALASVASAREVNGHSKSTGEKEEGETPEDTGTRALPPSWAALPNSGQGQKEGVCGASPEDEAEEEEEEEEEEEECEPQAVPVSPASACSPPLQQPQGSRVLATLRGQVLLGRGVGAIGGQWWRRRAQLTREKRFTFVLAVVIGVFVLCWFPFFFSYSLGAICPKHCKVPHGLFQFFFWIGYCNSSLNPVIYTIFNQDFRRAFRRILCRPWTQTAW
# 320 non-olfactory GPCRs [3] = molecular target: T2, 320 non-olfactory GPCRs (Homo sapiens, UniProt Q8IZF3)
# T2 construct: expressed in transfected cells; host or cells: HTLA cells
# T2 sequence (Q8IZF3 22-695): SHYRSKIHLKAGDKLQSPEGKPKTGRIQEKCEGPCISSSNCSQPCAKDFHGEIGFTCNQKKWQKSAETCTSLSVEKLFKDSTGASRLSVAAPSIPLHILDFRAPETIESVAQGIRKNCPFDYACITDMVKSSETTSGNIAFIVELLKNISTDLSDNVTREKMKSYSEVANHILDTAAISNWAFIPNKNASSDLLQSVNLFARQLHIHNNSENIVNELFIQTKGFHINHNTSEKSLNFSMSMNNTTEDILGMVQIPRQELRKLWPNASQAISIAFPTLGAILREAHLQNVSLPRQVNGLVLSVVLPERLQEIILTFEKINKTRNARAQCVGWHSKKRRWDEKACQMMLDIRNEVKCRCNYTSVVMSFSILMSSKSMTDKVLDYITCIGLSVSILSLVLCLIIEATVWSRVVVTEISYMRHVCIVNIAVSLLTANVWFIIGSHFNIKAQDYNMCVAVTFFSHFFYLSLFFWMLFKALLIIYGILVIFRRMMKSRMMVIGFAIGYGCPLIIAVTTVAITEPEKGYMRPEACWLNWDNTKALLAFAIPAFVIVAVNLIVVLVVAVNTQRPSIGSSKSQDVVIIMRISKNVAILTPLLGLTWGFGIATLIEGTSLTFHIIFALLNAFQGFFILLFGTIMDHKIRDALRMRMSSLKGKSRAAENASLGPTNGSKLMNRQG
# 320 non-olfactory GPCRs [4] = molecular target: T3, 320 non-olfactory GPCRs (Homo sapiens, UniProt P47900); conditions: receptor P2RY1; replicate values, Fig_4g
# T3 construct: expressed in transfected cells; host or cells: HTLA cells
# T3 sequence (P47900 whole entry): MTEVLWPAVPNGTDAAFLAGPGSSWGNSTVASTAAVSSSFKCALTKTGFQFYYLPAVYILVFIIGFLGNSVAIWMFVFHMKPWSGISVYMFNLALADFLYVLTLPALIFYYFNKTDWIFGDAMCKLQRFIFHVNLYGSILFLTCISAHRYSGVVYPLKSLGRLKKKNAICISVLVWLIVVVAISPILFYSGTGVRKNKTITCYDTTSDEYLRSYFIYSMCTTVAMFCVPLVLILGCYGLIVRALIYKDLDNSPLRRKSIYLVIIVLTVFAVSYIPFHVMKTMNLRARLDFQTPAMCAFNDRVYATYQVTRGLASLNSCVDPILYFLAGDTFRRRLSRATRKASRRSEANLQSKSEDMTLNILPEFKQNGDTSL
# 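Throughout, for Fold of Basal: compound tested at 1 µM final concentration.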
# 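Throughout, for GPCRome agonism screen response: fold over basal response of each receptor without drug.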
# Sequence of 320 non-olfactory GPCRs (Homo sapiens, UniProt P41145) (P41145 whole entry): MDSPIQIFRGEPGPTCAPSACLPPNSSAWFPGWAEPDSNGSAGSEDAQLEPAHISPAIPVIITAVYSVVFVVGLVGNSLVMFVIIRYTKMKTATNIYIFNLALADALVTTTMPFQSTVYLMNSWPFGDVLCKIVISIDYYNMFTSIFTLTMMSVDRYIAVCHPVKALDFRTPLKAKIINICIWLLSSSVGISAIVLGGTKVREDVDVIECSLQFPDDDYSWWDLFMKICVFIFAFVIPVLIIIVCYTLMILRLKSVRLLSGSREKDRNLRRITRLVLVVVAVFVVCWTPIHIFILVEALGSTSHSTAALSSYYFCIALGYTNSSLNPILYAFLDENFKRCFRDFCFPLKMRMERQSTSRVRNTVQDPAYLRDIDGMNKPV
compound,measurement,setting,value
CCOc1cccc2cc(C(C)NCC3(O)CCCCC3)oc12 (stereo not shown) [O4LE6],GPCRome agonism screen response,320 non-olfactory GPCRs [1],0.2798 and 2.137 and 1.223 and 1.286
same,Fold of Basal,320 non-olfactory GPCRs [2],0.5251 and 0.72 and 0.7774 and 1.019
same,Fold of Basal,320 non-olfactory GPCRs [3],1.314 and 0.8065 and 0.6945
same,GPCRome agonism screen response,320 non-olfactory GPCRs [4],1.006 and 0.5483 and 1.2859 and 1.3533
